{"source": "paper PMC10313368", "about": "(The Journal of Clinical Investigation, 2023)", "key": {"HIF-1α [1]": {"molecular_target": "T1, HIF-1α (Homo sapiens, UniProt Q16665)", "T1 sequence (Q16665 whole entry)": "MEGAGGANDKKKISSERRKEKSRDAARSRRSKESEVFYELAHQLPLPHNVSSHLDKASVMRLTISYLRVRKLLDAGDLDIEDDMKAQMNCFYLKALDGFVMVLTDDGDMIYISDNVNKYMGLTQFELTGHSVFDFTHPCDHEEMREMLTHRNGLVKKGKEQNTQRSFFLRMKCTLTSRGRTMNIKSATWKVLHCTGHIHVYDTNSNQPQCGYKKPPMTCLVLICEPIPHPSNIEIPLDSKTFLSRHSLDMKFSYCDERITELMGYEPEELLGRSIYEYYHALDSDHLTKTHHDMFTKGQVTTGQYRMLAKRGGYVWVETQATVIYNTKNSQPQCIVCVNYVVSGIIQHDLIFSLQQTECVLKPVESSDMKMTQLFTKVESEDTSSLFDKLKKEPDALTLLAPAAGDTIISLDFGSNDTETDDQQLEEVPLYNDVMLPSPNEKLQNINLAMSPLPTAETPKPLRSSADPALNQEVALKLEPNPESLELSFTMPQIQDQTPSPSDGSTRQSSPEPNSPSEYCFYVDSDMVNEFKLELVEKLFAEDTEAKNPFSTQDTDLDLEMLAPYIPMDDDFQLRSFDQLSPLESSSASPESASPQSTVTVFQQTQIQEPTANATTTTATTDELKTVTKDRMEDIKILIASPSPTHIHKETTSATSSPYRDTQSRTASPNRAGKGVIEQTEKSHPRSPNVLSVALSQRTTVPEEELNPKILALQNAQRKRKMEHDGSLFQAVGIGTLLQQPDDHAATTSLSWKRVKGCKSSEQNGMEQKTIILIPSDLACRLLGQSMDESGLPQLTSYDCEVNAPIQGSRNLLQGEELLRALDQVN", "experiment": "Immunoblot of HIF-1α accumulation in D120 hiPSC-derived retinal organoids in 1% O2", "format": "cell-based", "set-up": "endogenous in cells", "conditions": "1% O2 12 hours, 32-134D", "description": "(§1) An hiPSC line derived from CD34^+ cord blood was used in this study (A18945, Thermo Fisher Scientific) ([70]). Undifferentiated hiPSCs and derived retinal organoids were routinely tested for mycoplasma contamination by PCR. Cell culture, retinal differentiation, and organoid formation were conducted as previously described ([71]). Retinal organoids at D120 were used for experiments.\n(§2) Immunoblot assays. Cells, neurosensory retina, and D120 retinal organoid lysates were subjected\n(§3) to 4–15% gradient SDS/PAGE (Invitrogen). Immunoblot (Western blot or WB) assays were\n(§4) performed as previously described (1). […]"}, "BL/6 mice": {"tested_on": "BL/6 mice", "experiment": "Fundus photos and fluorescein angiography after systemic (i.p.) administration", "format": "in vivo, mouse", "conditions": "adult mice, 1 month following 5 consecutive i.p. injections of 40 or 80 mg/kg", "description": "protocol, the sections were rinsed three times with PBS for 2 minutes. Images were captured at high magnification (20X) with Zeiss fluorescent microscope.\nFlash scotopic ERGs. All procedures were performed under dim red light. Mice were dark adapted overnight, anesthetized with ketamine (50 mg/kg) and xylazine (5mg/kg) and pupils were dilated with a topical drop of tropicamide (1%). Scotopic ERG responses were measured using the Celeris ERG stimulator (Diagnosys, Lowell, MA) at flash intensities of 0.025, 0.25, 2.5, 7.96, and 79.06 cd/s/m2. ERGs were measured simultaneously from both eyes with a ground electrode placed into the forehead between the eyes and a reference electrode into the hip.\nFluorescein angiography in mice. […]\nvascular permeability, experimental animals were treated with 5 consecutive daily IP injections […]\nOn day 30, mice were anesthetized using intramuscular injection with ketamine (50 mg/kg) and xylazine (5mg/kg). […] Fluorescein leakage manifests as indistinct vascular borders progressing to diffusely hazy fluorescence. Fluorescein leakage was compared between different groups by quantifying the fluorescence intensities collected after 1-, 2-, and 3-minutes following fluorescein injection using the ImageJ software."}, "MIO-M1 cells": {"tested_on": "MIO-M1 cells", "experiment": "qPCR of VEGF and ANGPTL4 mRNA in hypoxic MIO-M1 cells", "format": "cell-based, human", "conditions": "for Angptl4 mRNA / Vegfa mRNA: MIO-M1, 1%O2+32-134D 10μM, 20%O2 about 1, replicates, Figure 7H", "description": "(§5) MIO-M1, HUVECs, and ARPE19 cells were cultured in DMEM with 10% (vol/vol) FBS (Quality Biological) and 1% penicillin/streptomycin (Cellgro). A hypoxic chamber (Coy Laboratory Product Inc.; Two Glove Model) with 5% CO2, 94% N2, and 1% O2 gas concentration at 37°C was used to culture hypoxic cells. The control cells were cultured in an incubator maintained at 37°C, with 21% O2 and 5% CO2. […] Aflibercept was obtained from the Johns Hopkins University Pharmacy. […]\n(§6) Reverse transcription and quantitative real-time PCR. Total RNA was isolated from cultured cells or retinas with PureLinkTM RNA Mini Kit (Invitrogen #12183025), and cDNA was prepared with MuLV Reverse Transcriptase (Applied Biosystems). Quantitative real-time PCR was performed with Power SYBR Green PCR Master Mix (Applied Biosystems) and MyiQ Real-Time PCR Detection System (Bio-Rad). Normalization was done using cyclophilin A for mouse tissue and human cell lines. Primers are listed in Supplemental Table 2. […]"}, "HUVECs": {"tested_on": "HUVECs", "experiment": "qPCR of VEGF, ANGPTL4, ANGPT2, PTPRB, SERPINE1 mRNA in hypoxic HUVECs", "format": "cell-based, human", "conditions": "for Angptl4 mRNA / Vegfa mRNA: HUVEC 16HRS, Figure 8D; for Angptl4 mRNA / Vegfa mRNA / Angpt2 mRNA / Ptprb mRNA / Serpine1 mRNA: replicates; for Angpt2 mRNA / Ptprb mRNA / Serpine1 mRNA: HUVEC, Figure 8E", "description": "as §5, §6"}, "HIF-1α [2]": {"molecular_target": "T1, HIF-1α", "experiment": "Immunoblot of HIF-1α accumulation in MIO-M1 cells cultured in hypoxia", "format": "cell-based", "set-up": "endogenous in cells; host or cells: MIO-M1", "description": "MIO-M1, HUVECs, and ARPE19 cells were cultured in DMEM with 10% (vol/vol) FBS (Quality Biological) and 1% penicillin/streptomycin (Cellgro). A hypoxic chamber (Coy Laboratory Product Inc.; Two Glove Model) with 5% CO2, 94% N2, and 1% O2 gas concentration at 37°C was used to culture hypoxic cells. The control cells were cultured in an incubator maintained at 37°C, with 21% O2 and 5% CO2. […] Aflibercept was obtained from the Johns Hopkins University Pharmacy.\nas §2, §3, §4"}, "[3]": {"tested_on": "HIF transcriptional activity", "conditions": "cell-based reporter assay; read-out: IC50, inhibition of HIF transcriptional activity; cited from earlier work"}, "[4]": {"tested_on": "hiPSC-derived 3D retinal organoids", "experiment": "qPCR of VEGF and ANGPTL4 mRNA in D120 hiPSC-derived retinal organoids in 1% O2", "format": "cell-based, human", "conditions": "for Vegfa mRNA / Angptl4 mRNA: 12 hours, 20% O2 about 1, replicates; for Vegfa mRNA: Figure 9F; for Angptl4 mRNA: Figure 9G", "description": "as §1, with “experiments. […]” for “experiments.”\nas §6"}, "[5]": {"tested_on": "retinal ganglion cells (RGCs)", "experiment": "Retinal histology (H&E), RBPMS staining and quantitation of RGCs, ONL/INL thickness after intraocular injection", "format": "in vivo, mouse"}, "[6]": {"conditions": "HUVECs, hypoxia 16 hours, 32-134D 10 μM"}}, "note": "pIC50: −log10 of the molar value. “And” between values parts separate entries of the source, which are not always exact repeats. Equal values may be shown once.", "data": [{"smiles": "Brc1ccc2c(-c3csc(-c4c[nH]c5c(Br)cccc45)n3)c[nH]c2c1", "note": "[32-134D, 4-(6-bromo-1H-indol-3-yl)-2-(7-bromo-1H-indol-3-yl)thiazole]", "values": [{"measurement": "accumulation of HIF-1α protein", "setting": "HIF-1α [1]", "result": "effectively prevented accumulation"}, {"measurement": "fundus and fluorescein angiogram", "setting": "BL/6 mice", "result": "normal-appearing fundus without evidence of retinal vascular injury or leakage"}, {"measurement": "logIC50", "setting": "MIO-M1 cells; Figure 12B, [Inhibitor] vs. response (three parameters), best-fit value", "result": 0.5455}, {"measurement": "Angptl4 mRNA", "setting": "MIO-M1 cells; 2hrs", "result": "0.3563 and 0.4262 and 0.3782"}, {"measurement": "Vegfa mRNA", "setting": "MIO-M1 cells; 2hrs", "result": "1.026 and 1.073 and 1.079"}, {"measurement": "Angptl4 mRNA", "setting": "MIO-M1 cells; 4hrs", "result": "1.791 and 1.687 and 2.018"}, {"measurement": "Vegfa mRNA", "setting": "MIO-M1 cells; 4hrs", "result": "1.517 and 1.493 and 1.343"}, {"measurement": "Angptl4 mRNA", "setting": "MIO-M1 cells; 8hrs", "result": "1.385 and 1.132 and 0.993"}, {"measurement": "Vegfa mRNA", "setting": "MIO-M1 cells; 8hrs", "result": "2.421 and 2.295 and 2.311"}, {"measurement": "Angptl4 mRNA", "setting": "HUVECs; 1% O2+32-134D 1μM", "result": "23.6548 and 19.8329 and 22.215"}, {"measurement": "Vegfa mRNA", "setting": "HUVECs; 1% O2+32-134D 1μM", "result": "3.163 and 3.148 and 2.936"}, {"measurement": "Angptl4 mRNA", "setting": "HUVECs; 1% O2+32-134D 10μM", "result": "13.1074 and 12.3148 and 11.0174"}, {"measurement": "Vegfa mRNA", "setting": "HUVECs; 1% O2+32-134D 10μM", "result": "2.892 and 2.5719 and 2.682"}, {"measurement": "Angpt2 mRNA", "setting": "HUVECs; 1% O2+32-134D 1μM", "result": "1.029 and 1.541 and 1.067"}, {"measurement": "Ptprb mRNA", "setting": "HUVECs; 1% O2+32-134D 1μM", "result": "1.641 and 1.627 and 1.638"}, {"measurement": "Serpine1 mRNA", "setting": "HUVECs; 1% O2+32-134D 1μM", "result": "2.465 and 2.4817 and 2.486"}, {"measurement": "Angpt2 mRNA", "setting": "HUVECs; 1% O2+32-134D 10μM", "result": "1.092 and 1.046 and 0.8708"}, {"measurement": "Ptprb mRNA", "setting": "HUVECs; 1% O2+32-134D 10μM", "result": "1.169 and 1.1917 and 1.0627"}, {"measurement": "Serpine1 mRNA", "setting": "HUVECs; 1% O2+32-134D 10μM", "result": "2.072 and 2.145 and 2.576"}, {"measurement": "hypoxia-increased ANGPT2 mRNA (in words)", "setting": "HUVECs; [6]", "result": "inhibited"}, {"measurement": "hypoxia-increased PTPRB mRNA (in words)", "setting": "HUVECs; [6]", "result": "inhibited"}, {"measurement": "HIF-1α protein accumulation in response to hypoxia", "setting": "HIF-1α [2]; MIO-M1, 1 μM 32-134D, 1% O2 4 hours", "result": "decreased"}, {"measurement": "persistence of effect on HIF-1α accumulation after treatment", "setting": "HIF-1α [2]; MIO-M1, 10 μM, hypoxia 1 to 24 hours", "result": "up to 16 hours"}, {"measurement": "pIC50", "setting": "HIF-1α [2]; MIO-M1 cells cultured in hypoxia, read-out: IC50, HIF-1α protein accumulation (quantitation of immunoblots)", "result": 5.46}, {"measurement": "pIC50", "setting": "[3]", "result": "> 5.40"}, {"measurement": "expression of HIF-regulated vasoactive mediators (in words)", "setting": "[4]; 1% O2 12 hours, 32-134D", "result": "effectively prevented"}, {"measurement": "Vegfa mRNA", "setting": "[4]; 1% O2+32-134D 1μM", "result": "2.046 and 2.085 and 1.848"}, {"measurement": "Angptl4 mRNA", "setting": "[4]; 1% O2+32-134D 1μM", "result": "5.344 and 5.73 and 5.861"}, {"measurement": "Vegfa mRNA", "setting": "[4]; 1% O2+32-134D 10μM", "result": "0.2069 and 0.1725 and 0.1726"}, {"measurement": "Angptl4 mRNA", "setting": "[4]; 1% O2+32-134D 10μM", "result": "0.1373 and 0.1287 and 0.1338"}, {"measurement": "retinal histology including GCL", "setting": "[5]; 32-134D 210 or 350 ng intraocular, 35 days", "result": "normal histology"}, {"measurement": "number of RGCs on retinal flat mounts (in words)", "setting": "[5]; 32-134D at the highest doses tested, 35 days", "result": "unaffected"}, {"measurement": "ONL or INL thickness versus vehicle (in words)", "setting": "[5]; 32-134D single dose 350 ng, 5 weeks", "result": "failed to demonstrate any changes"}, {"measurement": "therapeutic window following intraocular administration", "setting": "[5]; 32-134D, mice", "result": "wide therapeutic window"}]}]}
